Results reported in the supplement of paper PMC11368000.

Assays:
Settings in all cases: exposure time: 90 min
20084 = donor line of iPSC-derived cardiomyocytes; test: POD (EC05) for increase in Ca2+ transient decay-to-rise ratio (QT prolongation) vs vehicle; higher = less potent (higher point of departure)
Procedure: (§1)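 Human iPSC-derived cardiomyocytes from 16 donors were exposed for 90 min at 37 °C to each PFAS at 0.1, 1, 10 and 100 µM in 0.5% DMSO, 384-well plates. Kinetic Ca2+ flux (FLIPR) and Hoechst nuclei counts were normalised to vehicle wells and fitted with a hierarchical Bayesian Hill model to give donor-specific PODs: EC05 for beat-rate increase or decrease and for decay-to-rise ratio increase (QT proxy), EC95 for peak-frequency loss (asystole), EC10 for total cell number loss. 0.03 µM is the lower bound.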

1434 = donor line of iPSC-derived cardiomyocytes; test: as above
Procedure: as §1

1083 = donor line of iPSC-derived cardiomyocytes; test: as above
Procedure: as §1

1118 [1] = donor line of iPSC-derived cardiomyocytes; test: as above
Procedure: as §1

11235 = donor line of iPSC-derived cardiomyocytes; test: as above
Procedure: as §1

1309 [2] = donor line of iPSC-derived cardiomyocytes; test: as above
Procedure: as §1

20032 [3] = donor line of iPSC-derived cardiomyocytes; test: as above
Procedure: as §1

30145 = donor line of iPSC-derived cardiomyocytes; test: as above
Procedure: as §1

1535 = donor line of iPSC-derived cardiomyocytes; test: as above
Procedure: as §1

1368 = donor line of iPSC-derived cardiomyocytes; test: as above
Procedure: as §1

1392 = donor line of iPSC-derived cardiomyocytes; test: as above
Procedure: as §1

1565 = donor line of iPSC-derived cardiomyocytes; test: as above
Procedure: as §1

30171 [4] = donor line of iPSC-derived cardiomyocytes; test: as above
Procedure: as §1

1118 [5] = test: POD (EC10) for decrease in total cell number (cytotoxicity) vs vehicle; higher = less potent (higher point of departure)
In short: (§2)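 Human iPSC-derived cardiomyocytes from 16 donors were cultured 14 days in 384-well plates, then exposed for 90 min at 37 °C to 0.1, 1, 10 and 100 µM (final, 0.5% DMSO). After the Ca2+ flux read, cells were stained 15 min with Hoechst 33342 (2.2 µg/mL) and MitoTracker Orange and imaged at 10× on an ImageXpress Micro Confocal. Nuclei were counted per field in MetaXpress. Donor-specific cytotoxicity points of departure came from hierarchical Bayesian Hill fits to vehicle-normalised counts, using a 10% decrease.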

1531 = donor line of iPSC-derived cardiomyocytes; test: as above
In short: as §2

1309 [6] = test: as above
In short: as §2

20032 [7] = test: as above
In short: as §2

1518 = donor line of iPSC-derived cardiomyocytes; test: as above
In short: as §2

1516 = donor line of iPSC-derived cardiomyocytes; test: as above
In short: as §2

30171 [8] = test: as above
In short: as §2

Row | Compound | POD vs vehicle 20084 | POD vs vehicle 1434 | POD vs vehicle 1083 | POD vs vehicle 1118 [1] | POD vs vehicle 11235 | POD vs vehicle 1309 [2] | POD vs vehicle 20032 [3] | POD vs vehicle 30145 | POD vs vehicle 1535 | POD vs vehicle 1368 | POD vs vehicle 1392 | POD vs vehicle 1565 | POD vs vehicle 30171 [4] | POD vs vehicle 1118 [5] | POD vs vehicle 1531 | POD vs vehicle 1309 [6] | POD vs vehicle 20032 [7] | POD vs vehicle 1518 | POD vs vehicle 1516 | POD vs vehicle 30171 [8]
1 | O=C(O)C(F)(F)C(F)(F)C(F)(F)C(F)(F)C(F)(F)C(F)(F)C(F)(F)C(F)(F)Cl [9-Chloro-perfluorononanoic_acid] | > 100 µM | > 100 µM | > 100 µM | > 100 µM | > 100 µM | > 100 µM | > 100 µM | > 100 µM | > 100 µM | > 100 µM | > 100 µM | > 100 µM | > 100 µM | > 100 µM | > 100 µM | > 100 µM | > 100 µM | > 100 µM | 56.2 µM | 30.5 µM
2 | O=P(O)(O)CCC(F)(F)C(F)(F)C(F)(F)C(F)(F)C(F)(F)C(F)(F)C(F)(F)C(F)(F)F [((Perfluorooctyl)ethyl)phosphonic_acid] | > 100 µM | > 100 µM | > 100 µM | > 100 µM | > 100 µM | > 100 µM | > 100 µM | > 100 µM | > 100 µM | > 100 µM | > 100 µM | > 100 µM | > 100 µM | > 100 µM | > 100 µM | > 100 µM | > 100 µM | > 100 µM | > 100 µM | > 100 µM
3 | O=C(O)C(F)(F)OC(F)(F)C(F)(F)OC(F)(F)F [Perfluoro-3,6-dioxaheptanoic_acid] | > 100 µM | > 100 µM | > 100 µM | > 100 µM | > 100 µM | > 100 µM | > 100 µM | > 100 µM | > 100 µM | > 100 µM | > 100 µM | > 100 µM | > 100 µM | > 100 µM | > 100 µM | > 100 µM | > 100 µM | > 100 µM | > 100 µM | > 100 µM
4 | O=S(=O)(O)CCC(F)(F)C(F)(F)C(F)(F)C(F)(F)C(F)(F)C(F)(F)F [6:2 Fluorotelomer sulfonic acid] | > 100 µM | > 100 µM | > 100 µM | > 100 µM | > 100 µM | > 100 µM | > 100 µM | > 100 µM | > 100 µM | > 100 µM | > 100 µM | > 100 µM | > 100 µM | > 100 µM | > 100 µM | > 100 µM | > 100 µM | > 100 µM | > 100 µM | > 100 µM
5 | O=C(O)C=CC(F)(C(F)(F)F)C(F)(F)F [3-(Perfluoroisopropyl)-2-propenoic_acid] | > 100 µM | > 100 µM | > 100 µM | > 100 µM | > 100 µM | > 100 µM | > 100 µM | > 100 µM | > 100 µM | > 100 µM | > 100 µM | > 100 µM | > 100 µM | > 100 µM | > 100 µM | > 100 µM | > 100 µM | > 100 µM | > 100 µM | > 100 µM
6 | NS(=O)(=O)C(F)(F)C(F)(F)C(F)(F)C(F)(F)C(F)(F)C(F)(F)F [Perfluorohexanesulfonamide] | > 100 µM | > 100 µM | 30.8 µM | > 100 µM | > 100 µM | > 100 µM | > 100 µM | > 100 µM | 16.8 µM | > 100 µM | > 100 µM | > 100 µM | > 100 µM | 14.9 µM | > 100 µM | 70.7 µM | > 100 µM | > 100 µM | 61.1 µM | > 100 µM
7 | O=C(O)C(F)(F)C(F)(F)C(F)(F)C(F)(F)C(F)(F)C(F)(F)C(F)(F)C(F)(F)F [Perfluorononanoic_acid] | > 100 µM | > 100 µM | > 100 µM | > 100 µM | > 100 µM | > 100 µM | > 100 µM | > 100 µM | > 100 µM | > 100 µM | > 100 µM | > 100 µM | > 100 µM | > 100 µM | > 100 µM | > 100 µM | > 100 µM | > 100 µM | > 100 µM | > 100 µM
8 | COC(=O)C(F)(F)C(F)(F)OC(F)(C(F)(F)F)C(F)(F)OC(F)=C(F)F (stereo not given) [Methyl_perfluoro(3-(1-ethenyloxypropan-2-yloxy)propanoate)] | 37.5 µM | > 100 µM | > 100 µM | > 100 µM | > 100 µM | > 100 µM | > 100 µM | > 100 µM | > 100 µM | > 100 µM | > 100 µM | > 100 µM | > 100 µM | > 100 µM | > 100 µM | > 100 µM | 0.591 µM | > 100 µM | > 100 µM | > 100 µM
9 | O=C(O)C=C(C(F)(F)F)C(F)(F)F [3,3-Bis(trifluoromethyl)-2-propenoic_acid] | > 100 µM | > 100 µM | > 100 µM | > 100 µM | > 100 µM | > 100 µM | > 100 µM | > 100 µM | > 100 µM | > 100 µM | > 100 µM | > 100 µM | > 100 µM | > 100 µM | > 100 µM | > 100 µM | > 100 µM | > 100 µM | > 100 µM | > 100 µM
10 | OCC(F)(F)C(F)(F)C(F)(F)C(F)(F)C(F)(F)C(F)F [Dodecafluoroheptanol] | > 100 µM | > 100 µM | > 100 µM | > 100 µM | > 100 µM | > 100 µM | 0.504 µM | > 100 µM | > 100 µM | > 100 µM | > 100 µM | > 100 µM | > 100 µM | 95.5 µM | > 100 µM | > 100 µM | 58.4 µM | > 100 µM | > 100 µM | 46.4 µM
